From patent US9896418B2, “Aryl ethers and uses thereof” (Peloton Therapeutics, Inc., priority 2013, dated 2018)

Test system: HIF-2α HIS TAG-PASB Domain
Assay: HIF-2α Scintillation Proximity Assay (SPA)
Assay type: binding
Procedure: The percent inhibition was determined and IC50 values were calculated using the Dotmatics system based on the following equation: % inhibition=[(high control−sample)/(high control−low control)]×100.

SMILES	IC50
CS(=O)(=NC#N)c1ccc(Oc2cncc(C#N)c2)c2c1[C@H](O)C(F)(F)[C@@H]2F (single isomer, unassigned) [Compound 319]	0.014 µM
CS(=O)(=NC#N)c1ccc(Oc2cncc(C#N)c2)c2c1[C@H](O)C(F)(F)[C@@H]2F (single isomer, unassigned) [Compound 321]	0.032 µM
N#CN=S(=O)(CF)c1ccc(Oc2cc(F)cc(C#N)c2)c2c1[C@H](O)C(F)(F)C2 (single isomer, unassigned) [Example 285]	0.071 µM
CS(=O)(=NC#N)c1ccc(Oc2cc(F)cc(C#N)c2)c2c1[C@H](O)C(F)(F)[C@@H]2F (single isomer, unassigned) [Example 316]	< 0.005 µM
O=S(=O)(c1ccc(Oc2cncc(Cl)c2)c2c1[C@H](O)CC2)C(F)F [Compound 3, (R)-4-((5-chloropyridin-3-yl)oxy)-7-((difluoromethyl)sulfonyl)-2,3-dihydro-1H-inden-1-ol]	0.34 µM
N#Cc1cncc(Oc2ccc(S(=O)(=O)C(F)F)c3c2CC[C@H]3O)c1 [Compound 4, (R)-5-((7-((Difluoromethyl)sulfonyl)-1-hydroxy-2,3-dihydro-1H-inden-4-yl)oxy)nicotinonitrile]	3.3 µM
O=S(=O)(c1ccc(Oc2cncc(F)c2)c2c1[C@H](O)CC2)C(F)F [Compound 5, (R)-7-((difluoromethyl)sulfonyl)-4-((5-fluoropyridin-3-yl)oxy)-2,3-dihydro-1H-inden-1-ol]	0.9 µM
O=S(=O)(c1ccc(Oc2cc(F)cc(Cl)c2)c2c1C(O)C(F)(F)C2)C(F)F (stereo not shown) [Compound 8, 4-(3-chloro-5-fluoro-phenoxy)-7-(difluoromethylsulfonyl)-2,2-difluoro-indan-1-ol]	< 0.005 µM
C=CCC1(O)c2c(S(=O)(=O)C(F)F)ccc(Oc3cc(F)cc(F)c3)c2CC1(F)F (stereo not shown) [Compound 12, 1-allyl-7-(difluoromethylsulfonyl)-4-(3,5-difluorophenoxy)-2,2-difluoro-indan-1-ol]	9.8 µM
CC1(O)c2c(S(=O)(=O)C(F)F)ccc(Oc3cc(F)cc(C#N)c3)c2CC1(F)F (stereo not shown) [Compound 13, 3-[7-(difluoromethylsulfonyl)-2,2-difluoro-1-hydroxy-1-methyl-indan-4-yl]oxy-5-fluoro-benzonitrile]	6.6 µM
O=S(=O)(c1ccc(Oc2cc(F)cc(F)c2)c2c1CCC2)C(F)F [Compound 20, 4-((Difluoromethyl)sulfonyl)-7-(3,5-difluorophenoxy)-2,3-dihydro-1H-indene]	1.1 µM
O=S(=O)(c1ccc(Oc2cc(F)cc(F)c2)c2c1C=CC2)C(F)F [Compound 21, 4-((Difluoromethyl)sulfonyl)-7-(3,5-difluorophenoxy)-1H-indene]	0.14 µM
N#Cc1cc(F)cc(Oc2ccc(S(=O)(=O)C(F)(F)F)c(Cl)c2C#N)c1 [Compound 29, 2-Chloro-6-(3-cyano-5-fluorophenoxy)-3-((trifluoromethyl)sulfonyl)benzonitrile]	0.022 µM
Cc1c(S(=O)(=O)C(F)F)ccc(Oc2cc(F)cc(F)c2)c1C#N [Compound 34, 3-((Difluoromethyl)sulfonyl)-6-(3,5-difluorophenoxy)-2-methylbenzonitrile]	< 0.005 µM
CN(C)Cc1c(S(=O)(=O)C(F)F)ccc(Oc2cc(F)cc(Cl)c2)c1C#N [Compound 36, 6-(3-Chloro-5-fluorophenoxy)-3-((difluoromethyl)sulfonyl)-2-((dimethylamino)methyl)benzonitrile]	17 µM
Cc1c([S+]([O-])C(F)F)ccc(Oc2cc(F)cc(Cl)c2)c1C#N (stereo not shown) [Compound 37, 6-(3-Chloro-5-fluorophenoxy)-3-((difluoromethyl)sulfinyl)-2-methylbenzonitrile]	6.7 µM
O=S(=O)(c1ccc(Oc2cc(F)cc(Cl)c2)c(Cl)c1CNCC(F)(F)F)C(F)F [Compound 47, N-(2-Chloro-3-(3-chloro-5-fluorophenoxy)-6-((difluoromethyl)sulfonyl)benzyl)-2,2,2-trifluoroethan-1-amine]	9 µM
O=S(=O)(c1ccc(Oc2cc(F)cc(Cl)c2)c(Cl)c1CNC1CCOCC1)C(F)F [Compound 48, N-(2-Chloro-3-(3-chloro-5-fluorophenoxy)-6-((difluoromethyl)sulfonyl)benzyl)tetrahydro-2H-pyran-4-amine]	0.92 µM
Cc1c(S(C)(=O)=O)ccc(Oc2cc(F)cc(Cl)c2)c1C(F)F [Compound 53, 1-(3-Chloro-5-fluorophenoxy)-2-(difluoromethyl)-3-methyl-4-(methylsulfonyl)benzene]	0.33 µM
N=S(=O)(c1ccc(Oc2cc(F)cc(Cl)c2)c(Br)c1)C(F)F (stereo not shown) [Compound 69, 2-bromo-1-(3-chloro-5-fluorophenoxy)-4-((difluoromethyl)sulfonimidoyl)benzene]	1.3 µM
N#Cc1cc(S(=N)(=O)C(F)(F)F)ccc1Oc1cc(F)cc(Cl)c1 (stereo not shown) [Compound 72, 2-(3-chloro-5-fluorophenoxy)-5-((trifluoromethyl)sulfonimidoyl)benzonitrile]	0.51 µM
N=S(=O)(c1ccc(Oc2cc(F)cc(Cl)c2)c(Br)c1Cl)C(F)(F)F (stereo not shown) [Compound 75, (3-bromo-2-chloro-4-(3-chloro-5-fluorophenoxy)phenyl)(imino)(trifluoromethyl)-λ^6-sulfanone]	0.24 µM
N#Cc1c(S(=O)(=O)C(F)F)ccc(Oc2cc(F)cc(Cl)c2)c1Br [Compound 76, 2-bromo-3-(3-chloro-5-fluorophenoxy)-6-((difluoromethyl)sulfonyl)benzonitrile]	0.88 µM

More lines, now with the values ahead:

IC50	SMILES
5.1 µM	N#Cc1cc(F)cc(Oc2ccc(S(=O)(=O)C(F)(F)F)c3c2[C@@H](N)C[C@H]3O)c1 (relative stereo) [Compound 279, 3-((cis-3-amino-1-hydroxy-7-((trifluoromethyl)sulfonyl)-2,3-dihydro-1H-inden-4-yl)oxy)-5-fluorobenzonitrile]
0.094 µM	N#Cc1cc(F)cc(Oc2ccc(S(=N)(=O)CF)c3c2CC(F)(F)[C@H]3O)c1 (single isomer, unassigned) [Example 274]
< 0.005 µM	O=S(=O)(c1ccc(Oc2cc(F)cc(F)c2)c2c1[C@H](O)CC2)C(F)F [Compound 2, (R)-7-((Difluoromethyl)sulfonyl)-4-(3,5-difluorophenoxy)-2,3-dihydro-1H-inden-1-ol]
< 0.005 µM	O=S(=O)(c1ccc(Oc2cc(F)cc(F)c2)c2c1C(O)C(F)(F)C2)C(F)F (stereo not shown) [Compound 9, 7-(difluoromethylsulfonyl)-4-(3,5-difluorophenoxy)-2,2-difluoro-indan-1-ol]
5.2 µM	N#CCS(=O)(=O)c1ccc(Oc2cc(F)cc(F)c2)c2c1C(O)CC2 (stereo not shown) [Compound 14, 2-[7-(3,5-difluorophenoxy)-3-hydroxy-indan-4-yl]sulfonylacetonitrile]
0.12 µM	O=C1CCc2c(Oc3cc(F)cc(Cl)c3)ccc(S(=O)(=O)C(F)F)c21 [Compound 18, 4-(3-chloro-5-fluorophenoxy)-7-((difluoromethyl)sulfonyl)-2,3-dihydro-1H-inden-1-one]
38 µM	NC1CCc2c(Oc3cc(F)cc(F)c3)ccc(S(=O)(=O)C(F)F)c21 (stereo not shown) [Compound 19, 7-((difluoromethyl)sulfonyl)-4-(3,5-difluorophenoxy)-2,3-dihydro-1H-inden-1-amine]
0.92 µM	O=S(=O)(c1ccc(Oc2cc(F)cc(F)c2)c2c1C(CO)CC2)C(F)F (stereo not shown) [Compound 24, (7-((Difluoromethyl)sulfonyl)-4-(3,5-difluorophenoxy)-2,3-dihydro-1H-inden-1-yl)methanol]
49.9 µM	N#Cc1c(Oc2cc(F)cc(Cl)c2)ccc(S(=O)(=O)C(F)(F)F)c1Cl [Compound 28, 2-Chloro-6-(3-chloro-5-fluorophenoxy)-3-((trifluoromethyl)sulfonyl)benzonitrile]
0.018 µM	Cc1c(S(=O)(=O)C(F)F)ccc(Oc2cc(F)cc(Cl)c2)c1C#N [Compound 32, 6-(3-Chloro-5-fluorophenoxy)-3-((difluoromethyl)sulfonyl)-2-methylbenzonitrile]
0.157 µM	Cc1c(S(=O)(=O)C(F)F)ccc(Oc2cc(F)cc(C#N)c2)c1C#N [Compound 33, 6-(3-Cyano-5-fluorophenoxy)-3-((difluoromethyl)sulfonyl)-2-methylbenzonitrile]
6.1 µM	O=S(=O)(c1ccc(Oc2cc(F)cc(Cl)c2)c(Cl)c1Cn1ccnc1)C(F)F [Compound 45, 1-(2-Chloro-3-(3-chloro-5-fluorophenoxy)-6-((difluoromethyl)sulfonyl)benzyl)-1H-imidazole]
13 µM	O=S(=O)(c1ccc(Oc2cc(F)cc(Cl)c2)c(Cl)c1CNC1CCCOC1)C(F)F (stereo not shown) [Compound 49, N-(2-Chloro-3-(3-chloro-5-fluorophenoxy)-6-((difluoromethyl)sulfonyl)benzyl)tetrahydro-2H-pyran-3-amine]
2 µM	Cc1c(S(C)(=O)=O)ccc(Oc2cc(F)cc(C#N)c2)c1C#N [Compound 51, 6-(3-Cyano-5-fluorophenoxy)-2-methyl-3-(methylsulfonyl)benzonitrile]
0.046 µM	Cc1c(S(C)(=O)=O)ccc(Oc2cc(F)cc(F)c2)c1C#N [Compound 52, 6-(3,5-Difluorophenoxy)-2-methyl-3-(methylsulfonyl)benzonitrile]
5 µM	N#Cc1ccc(Oc2cc(F)cc(F)c2)c2c1[C@H](O)CC2 [Compound 66, (R)-7-(3,5-Difluorophenoxy)-3-hydroxy-2,3-dihydro-1H-indene-4-carbonitrile]
3.1 µM	CS(=O)(=NC#N)c1ccc(Oc2cc(F)cc(C#N)c2)c2c1C(O)CC2 (stereo not shown) [Compound 68]
0.77 µM	CN=S(=O)(c1ccc(Oc2cc(F)cc(Cl)c2)c(Br)c1)C(F)F (stereo not drawn) [Compound 70, N-methyl-2-bromo-1-(3-chloro-5-fluorophenoxy)-4-(S-(difluoromethyl)sulfonimidoyl)benzene]
0.64 µM	N=S(=O)(c1ccc(Oc2cc(F)cc(Cl)c2)c(Br)c1)C(F)(F)F (stereo not shown) [Compound 71, 2-bromo-1-(3-chloro-5-fluorophenoxy)-4-((trifluoromethyl)sulfonimidoyl)benzene]
1.4 µM	N#Cc1cc(F)cc(Oc2ccc(S(=N)(=O)C(F)(F)F)cc2C#N)c1 (stereo not shown) [Compound 73, 2-(3-cyano-5-fluorophenoxy)-5-((trifluoromethyl)sulfonimidoyl)benzonitrile]
